Data: the supplement of paper PMC10307832

Key:
Test in all cases: relative viability (nuclei count vs DMSO), 5 days (fraction); higher = more cells survive
[1] = compound: CCC1=CN=CN=C1N2CCN(CC2)CC3=NC4=C(N3)C=C(C=C4)C(F)(F)F + C[C@]1(O)C[C@@H](c2nc(-c3ccc4ccc(-c5ccccc5)nc4c3)c3c(N)nccn32)C1 [Linsitinib] (partner 1 µM)
Method in brief: (§1)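 One day after seeding in 1536-well plates, lung cancer cell lines were dosed by pin tool. Dosing was either single-drug or a fixed anchor-drug dose plus five library-drug doses (not always all listed) in √10 steps. After 5 days, nuclei were stained in one fix-and-stain step and counted on 4× images, and relative viability is the nuclei count of treated wells over that of vehicle wells, given as the median of duplicate plates.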

[2] = compound: CCn1c(-c2nonc2N)nc2cnc(Oc3cccc(NC(=O)c4ccc(OCCN5CCOCC5)cc4)c3)cc21 + Nc1ncn([C@H]2C[C@H](O)[C@@H](CO)O2)c(=O)n1 [Decitabine] (partner 2 µM)
Method in brief: as §1

[3] = compound: CCn1c(-c2nonc2N)nc2cnc(Oc3cccc(NC(=O)c4ccc(OCCN5CCOCC5)cc4)c3)cc21 + COc1cc2c(Oc3ccc(NC(=O)C4(C(=O)Nc5ccc(F)cc5)CC4)cc3F)ccnc2cc1OCCCN1CCOCC1 [Foretinib] (partner 0.25 µM)
Method in brief: as §1

Mirin + Alpelisib = compound: N=C1NC(=O)/C(=C/c2ccc(O)cc2)S1 [Mirin] + Cc1nc(NC(=O)N2CCC[C@H]2C(N)=O)sc1-c1ccnc(C(C)(C)C(F)(F)F)c1 [Alpelisib] (partner 2 µM)
Method in brief: as §1

Row | Cell Line | relative viability ([1]; first compound 0.04 µM) | relative viability ([1]; first compound 0.1265 µM) | relative viability ([1]; first compound 0.4 µM) | relative viability ([1]; first compound 1.265 µM) | relative viability ([1]; first compound 4 µM) | relative viability ([2]; first compound 0.04 µM) | relative viability ([2]; first compound 0.1265 µM) | relative viability ([2]; first compound 1.265 µM) | relative viability ([2]; first compound 4 µM) | relative viability ([3]; first compound 0.04 µM) | relative viability ([3]; first compound 0.1265 µM) | relative viability ([3]; first compound 0.4 µM) | relative viability ([3]; first compound 1.265 µM) | relative viability ([3]; first compound 4 µM) | relative viability (Mirin + Alpelisib; first compound 0.25 µM) | relative viability (Mirin + Alpelisib; first compound 0.7906 µM) | relative viability (Mirin + Alpelisib; first compound 2.5 µM) | relative viability (Mirin + Alpelisib; first compound 7.906 µM) | relative viability (Mirin + Alpelisib; first compound 25 µM) | relative viability ([2]; first compound 0.4 µM)
1 | LCLC-97TM1 | 0.23 | 0.185 | 0.158 | 0.166 | 0.202 | 0.258 | 0.235 | 0.232 | 0.258 | 1.03 | 1.04 | 0.813 | 0.902 | 0.937 | 0.253 | 0.31 | 0.197 | 0.18 | 0.129 | 
2 | LC-2-ad | 0.818 | 0.87 | 0.765 | 0.813 | 0.788 | 0.769 | 0.755 | 0.642 | 0.615 | 1 | 0.927 | 0.784 | 0.529 | 0.687 | 0.865 | 0.926 | 0.98 | 0.821 | 0.726 | 0.818
3 | SW 1573 | 0.574 | 0.683 | 0.862 | 0.777 | 0.866 | 0.476 | 0.466 | 0.23 | 0.173 | 1.1 | 0.926 | 0.527 | 0.539 | 0.354 | 0.529 | 0.72 | 0.794 | 0.665 | 0.508 | 0.365
4 | EKVX | 1.01 | 0.897 | 0.954 | 0.769 | 0.905 | 0.397 | 0.381 | 0.35 | 0.34 | 0.889 | 0.686 | 0.708 | 0.445 | 0.735 | 0.909 | 0.817 | 0.992 | 0.773 | 0.788 | 0.331
5 | NCI-H2087 | 1.08 | 1.01 | 1.08 | 0.795 | 0.754 | 0.321 | 0.324 | 0.289 | 0.315 | 1.1 | 0.911 | 1.01 | 0.876 | 0.695 | 1.07 | 1.06 | 1.13 | 1.24 | 1.08 | 0.285
6 | HCC-827 | 0.951 | 0.915 | 0.955 | 0.923 | 0.926 | 0.343 | 0.397 | 0.305 | 0.318 | 1.11 | 1.05 | 0.996 | 0.877 | 0.751 | 1.02 | 1.02 | 0.958 | 1.01 | 1.12 | 0.328
7 | NCI-H661 | 0.711 | 0.629 | 0.622 |  | 0.483 | 0.498 | 0.559 | 0.448 | 0.33 | 0.966 | 0.846 | 0.925 | 0.801 | 0.522 | 0.657 | 0.554 | 0.612 | 0.323 | 0.602 | 0.406
8 | EPLC-272H | 1.07 | 0.96 | 1 | 1.43 | 1.33 | 0.469 | 0.442 | 0.299 | 0.375 | 0.829 | 0.766 | 0.753 | 0.74 | 0.716 | 0.89 |  | 1.02 | 0.779 | 0.815 | 0.374
9 | A-427 | 1.12 | 1.11 | 1.03 | 1.05 | 0.857 | 0.542 | 0.517 | 0.278 | 0.291 | 1.12 | 0.947 | 1.14 | 1.02 | 1.21 | 1.2 |  | 1.15 | 1.1 | 1.14 | 0.475
10 | NCI-H650 | 0.7 | 1.03 | 1.01 | 0.864 | 0.804 | 0.288 | 0.318 | 0.237 | 0.32 | 1.12 | 0.774 | 0.531 | 0.366 | 0.438 | 1.04 |  | 1.09 |  | 1.1 | 0.301
11 | NCI-H1975 | 1.07 | 0.966 | 0.898 | 0.901 | 0.921 | 0.311 | 0.289 | 0.228 | 0.201 | 0.869 | 0.717 | 0.664 | 0.412 | 0.281 | 0.626 | 0.631 | 0.618 | 0.714 | 0.572 | 0.293
12 | NCI-H358 | 0.809 | 0.656 | 0.656 | 0.657 | 0.607 | 0.219 | 0.273 | 0.198 | 0.161 | 0.886 | 0.653 | 0.775 | 0.396 | 0.44 | 0.822 | 0.876 | 0.943 | 0.723 | 0.461 | 0.19
13 | RERF-LC-KJ | 0.814 | 0.827 | 0.849 | 0.84 | 0.772 | 0.621 | 0.695 | 0.452 | 0.29 | 1.02 | 0.829 | 0.74 | 0.532 | 0.532 | 0.822 | 0.898 | 0.956 | 0.916 | 0.75 | 0.588
14 | NCI-H647 | 1.33 | 1.18 |  | 1.24 | 1.31 | 0.379 | 0.426 | 0.288 | 0.347 | 1.27 | 1.09 | 0.913 | 0.668 | 0.715 | 1.24 | 1.36 | 1.15 | 1.22 | 0.657 | 0.276
15 | SK-LU-1 | 1.28 | 1.24 | 1.32 | 1 | 1.06 | 0.628 | 0.571 | 0.459 | 0.424 | 0.837 | 0.621 | 0.587 | 0.333 | 0.318 | 1.12 | 0.885 | 1.07 | 0.698 | 0.53 | 0.423
16 | NCI-H441 | 0.526 | 0.553 | 0.444 | 0.489 | 0.497 | 0.307 | 0.183 | 0.265 | 0.261 | 1.12 | 1.04 |  | 0.859 | 0.79 | 0.537 | 1.11 | 0.631 | 0.536 | 0.507 | 0.227
